Tests used:
[1] = system: A549 cells; test: XTT viability of A549 cells after direct gas exposure in 96-well plate; format: cell-based
Procedure: (§1) In vitro systems: One system involves a direct exposure of cancer cells to gNO in 96-well plate. Gaseous NO at 150 ppm-50,000 ppm was delivered at 0.3 LPM for 10 seconds—3 minutes. In another system, cancer cells were exposed to gNO in a box made of acrylic glass. Gaseous NO at 10,000-50,000 ppm was delivered at 0.9 LPM for 10 seconds—15 minutes.
(§2) The exposure of the cancer cells to gNO was done after removing the cell culture medium.
(§3) Immediately after gas exposure, cell culture medium was added, and the cells were incubated at a 37° C. and 5% CO2 incubator over-night. To test cell viability, XTT assay and Annexin V-Propidium Iodide assays were performed, according to known protocols.
A549 cells were prepared in RPMI medium and suspended in four 96-well plates. The wells were exposed to the gas by a tubing that was directed at each well for 10, 60 or 180 seconds. The diameter of the gas tubing used was about 25% of the diameter of each well. Three wells were used for each gas and exposure time. The plates were placed in a 5% CO2, 37° C. incubator for 15-18 hours and the viability of the cells was tested by XTT assay.

[2] = system: LLC1 cells; test: XTT viability of LLC1 cells after gas exposure in chamber; format: cell-based; settings: 10,000 ppm-25,000 ppm gNO for 3-15 minutes
Procedure: as §1, §2, §3
The effect of continuous gaseous nitric oxide (gNO) at 10,000 ppm, 15,000 ppm, 20,000 ppm, or 25,000 ppm, compared to air (control), on the survival of LLC1 cancer cell line was tested. LLC1 cells were prepared in DMEM medium and suspended in 96-well plates. The plates were placed inside an approx. 2 liter exposure chamber. The plates were exposed to the gas by filling the chamber with gNO for 10 seconds, or 1, 3, 9 or 15 minutes. After exposure, the plates were placed in a 5% CO2, 37° C. incubator for an overnight incubation and the viability of the cells was tested by XTT assay.

[3] = system: CT26 challenge tumor; test: Challenge assay in CT26 tumor-bearing mice; format: in vivo
Procedure: Challenge tumor inoculation: Up to 21 days after gas treatment was applied to the primary tumor, the appropriate cancer cell suspensions were prepared as described herein and inoculation of cells was repeated on the contralateral flank of the mice. Administration was performed as soon as possible following cell suspension preparation and after manual shaking prior to withdrawal of the cell suspension.
The percentage of challenge tumor take was monitored 2-3 times a week by taking a look at the inoculated site and touching this area to look for small tumors that are not yet visible. Naïve mice inoculated with tumor cells for the first time served as an internal control.
In another challenge assay, the tumors of CT26 tumor-bearing mice were treated with 25,000-200,000 ppm gNO delivered into the tumors using 23G hypodermic needles, as depicted in FIG. 17A.
CT26 tumor-bearing mice treated with 25,000 ppm for 30 minutes, were re-inoculated with CT26 tumor cells 12 days after treatment (n=1) and 14 days after treatment (n=1). The percentage of visible challenge tumor take was assessed 2-3 times a week for more than 50 days.
An additional group of CT26 tumor-bearing mice were treated with 50,000 ppm for 10 minutes, and were re-inoculated with CT26 tumor cells 7 days (n=1) or 9 days (n=1) after treatment. The percentage of challenge tumor take was assessed 2-3 times a week for 12 days.
An additional group of CT26 tumor-bearing mice were treated with 200,000 ppm for 2-35 seconds, were re-inoculated with CT26 tumor cells 14 days (n=2) post treatment. The percentage of visible challenge tumor take was assessed 2-3 times a week for more than 50 days.
Naïve mice, inoculated with CT26 for the first time, served as the control group.
The effect of high-pressure gas treatment on stimulation of anti-tumor immune response was tested in a challenge assay as depicted in FIG. 37A.
Balb/c mice were inoculated subcutaneously (s.c) with the mouse colon cancer cell line, CT26. […]

[4] = system: 4T1 cells; test: Third inoculation with 4T1 breast cancer cells in a gNO-treated CT26 immunized mouse; format: in vivo; settings: mouse treated with 25,000 ppm NO twice 15 minutes; third inoculation 30 days post the second
Procedure: Balb/c mouse was inoculated with 500,000 CT26 cells to the right flank. CT26 tumor was treated with 25,000 ppm NO for 15 minutes at a flow rate of 0.25 LPM. Seven days post gas treatment, this mouse was treated once again using the same protocol. Twelve days post the first NO treatment, this mouse was re-inoculated with 500,000 CT26 cells to the left flank. A third inoculation of cancer cells was performed 30 days post the second cell inoculation, using mouse breast cancer cells, was performed as well and the growth of a third inoculation of breast cancer cells, 4T1 cells. Forty-four days post challenge assay start (second inoculation), this mouse was sacrificed, and his spleen was harvested and preserved in RPMI-based media at 4° c. until processing of it. The spleen was processed into a sterile 35 mm culture dish containing 5 ml of RPMI-based media. Any extra connective tissues or fat was trimmed from the spleen. The flat end of a plunger was used to mince the spleen by crushing the spleen to release the splenocytes. A 70 μm strainer was primed by passing 1 ml of PBS through it and placed on a sterile 50 mL conical tube. The pellet was collected and transferred through the strainer via a 5 mL serological pipette. The strainer was washed with 3 mL of RPMI-based media. Tube will be centrifuged at 300×g for 10 minutes. […]

[5] = system: CT26 tumor; test: Combined gNO and surgery, CT26 tumor recurrence; format: in vivo, mice; settings: then excision
Procedure: The following in vivo experimental procedures were carried out in accordance with the protocol approved by the Ethics Committee on the Use and Care of Animals. Institutional Animal Care and Use Committee (IACUC): IL-20-3-149.
CT26 tumor-bearing mice were treated with 20,000 ppm and 50,000 ppm gNO intra-tumorally for 5 minutes. Up to fourteen days post gNO treatment, all tumors were excised, and the recurrence rate was monitored for 89 days post-excision. Tumor recurrence was detected 17 days post treatment.

[6] = pH of cell suspension after ex-vivo gNO treatment of tumor cells; format: physicochemical; settings: ex-vivo treatment of tumor cells with gNO

[N]=O [gNO, nitric oxide]
viability of A549 cells ([1]; 4000, 10,000, or 50,000 ppm gNO for 10 seconds): 50%-84% | viability of A549 cells ([1]; 4000, 10,000, or 50,000 ppm gNO for 60 seconds): 65%-96% | viability of A549 cells ([1]; 4000, 10,000, or 50,000 ppm gNO for 180 seconds): 45%-62% | viability of LLC1 cells [2]: less than 5% | secondary CT26 tumor cell inoculation at end of follow-up ([3]; 25,000 ppm 30 minutes, 50,000 ppm 10 minutes or 200,000 ppm 2-35 seconds, naive mice 100% tumor take): all NO-treated mice rejected a secondary CT26 tumor cell inoculation | tumor-free mice, no primary and challenge tumors ([3]; 25,000 ppm gNO, 0.25 LPM, two 15-minute cycles, outlet pressure 3.5-5.17 bars): 50% | development of a secondary (challenge) CT26 tumor ([3]; 25,000 ppm gNO, 0.25 LPM, two 15-minute cycles, outlet pressure 3.5-5.17 bars, re-inoculated days 12-14): have not developed a secondary tumor | growth of a third inoculation of breast cancer cells (4T1) [4]: inhibited | tumor recurrence ([5]; 20,000 ppm gNO intra-tumorally 5 minutes, 17 days post-surgery): about 18% | tumor recurrence ([5]; 50,000 ppm gNO intra-tumorally 5 minutes, 17 days post surgery): 0% | pH of cell suspension comprising gNO-treated tumor cells [6]: acidic pH

Source: patent US20240238417A1, “METHODS OF PRODUCING TUMOR VACCINES AND USES THEREOF” (priority 2021, published 2024)
